# Test system: K86415-001-R-J1-PDC complex spheroids, viability
# Test: Anticancer human tumor K86415-001-R-J1-PDC patient-derived lung adenocarcinoma cell line growth inhibition [RAS]
# Settings: for IC50: curve of first compound; for viability, T/C: stronger effect = lower value
# Procedure, shortened: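 Agents were tested in combination matrices in half-log decrements from a top concentration at or near clinical Cmax (10 microM if undetermined). Targets were multi-cell spheroids of tumour lines plus HUVEC and MSC stromal cells.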
# [1] = second compound 0.000949 µM, first compound 0.0316 µM
# [2] = second compound 0.000949 µM, first compound 0.1 µM
# [3] = second compound 0.000949 µM, first compound 0.316 µM
# [4] = second compound 0.000949 µM, first compound 1 µM
# [5] = second compound 0.000949 µM, first compound 3.16 µM
# [6] = second compound 0.000949 µM, first compound 10 µM
# [7] = second compound 0.003 µM, first compound 0.0316 µM
# [8] = second compound 0.003 µM, first compound 0.1 µM
# [9] = second compound 0.003 µM, first compound 0.316 µM
# [10] = second compound 0.003 µM, first compound 1 µM
# [11] = second compound 0.003 µM, first compound 3.16 µM
# [12] = second compound 0.003 µM, first compound 10 µM
# [13] = second compound 0.00949 µM, first compound 0.0316 µM
# [14] = second compound 0.00949 µM, first compound 0.1 µM
# [15] = second compound 0.00949 µM, first compound 0.316 µM
# [16] = second compound 0.00949 µM, first compound 1 µM
# [17] = second compound 0.00949 µM, first compound 3.16 µM
# [18] = second compound 0.00949 µM, first compound 10 µM
# [19] = second compound 0.03 µM, first compound 0.0316 µM
# [20] = second compound 0.03 µM, first compound 0.1 µM
# [21] = second compound 0.03 µM, first compound 0.316 µM
# [22] = second compound 0.03 µM, first compound 1 µM
# [23] = second compound 0.03 µM, first compound 3.16 µM
# [24] = second compound 0.03 µM, first compound 10 µM
# [25] = second compound 0.0949 µM, first compound 0.0316 µM
# [26] = second compound 0.0949 µM, first compound 0.1 µM
# [27] = second compound 0.0949 µM, first compound 0.316 µM
# [28] = second compound 0.0949 µM, first compound 1 µM
# [29] = second compound 0.0949 µM, first compound 3.16 µM
# [30] = second compound 0.0949 µM, first compound 10 µM
# [31] = second compound 0.3 µM, first compound 0.0316 µM
# [32] = second compound 0.3 µM, first compound 0.1 µM
# [33] = second compound 0.3 µM, first compound 0.316 µM
# [34] = second compound 0.3 µM, first compound 1 µM
# [35] = second compound 0.3 µM, first compound 3.16 µM
# [36] = second compound 0.3 µM, first compound 10 µM
# 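Note: spheroids exposed to agents for seven days before readout.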
smiles,measurement,setting,value
CC1(O)CCCC1n1c(=O)c(C(F)F)cc2cnc(NC3CCN(S(C)(=O)=O)CC3)nc21 (centres undefined) + CCn1c(-c2cccnc2C(C)OC)c2c3cc(ccc31)N1CCOC(CC(NC(=O)C(C(C)C)N(C)C(=O)C3(F)CCN(C(=O)C#CC(C)(C)N(C)C)CC3)C(=O)N3CCCC(N3)C(=O)OCC(C)(C)C2)C1,IC50,second compound 0.000949 µM,< 31.6 nM
same,IC50,second compound 0.003 µM,< 31.6 nM
same,IC50,second compound 0.00949 µM,< 31.6 nM
same,IC50,second compound 0.03 µM,< 31.6 nM
same,IC50,second compound 0.0949 µM,< 31.6 nM
same,IC50,second compound 0.3 µM,< 31.6 nM
same,"viability, T/C",[1],30.1%
same,"viability, T/C",[2],32.6%
same,"viability, T/C",[3],21.6%
same,"viability, T/C",[4],38.8%
same,"viability, T/C",[5],48.3%
same,"viability, T/C",[6],4.79%
same,"viability, T/C",[7],12.8%
same,"viability, T/C",[8],11.3%
same,"viability, T/C",[9],14.8%
same,"viability, T/C",[10],17.3%
same,"viability, T/C",[11],25%
same,"viability, T/C",[12],4.45%
same,"viability, T/C",[13],13.9%
same,"viability, T/C",[14],10.5%
same,"viability, T/C",[15],12.7%
same,"viability, T/C",[16],18.9%
same,"viability, T/C",[17],19.8%
same,"viability, T/C",[18],4.71%
same,"viability, T/C",[19],13.7%
same,"viability, T/C",[20],13.3%
same,"viability, T/C",[21],14.6%
same,"viability, T/C",[22],15.6%
same,"viability, T/C",[23],18.1%
same,"viability, T/C",[24],4.45%
same,"viability, T/C",[25],11.3%
same,"viability, T/C",[26],15%
same,"viability, T/C",[27],11.6%
same,"viability, T/C",[28],20.2%
same,"viability, T/C",[29],14.9%
same,"viability, T/C",[30],5.12%
same,"viability, T/C",[31],13%
same,"viability, T/C",[32],14.5%
same,"viability, T/C",[33],12.7%
same,"viability, T/C",[34],14.6%
same,"viability, T/C",[35],17.6%
same,"viability, T/C",[36],3.94%
CCC(CC)c1cc(NC2CCC(N)C2)n2nccc2n1 (centres undefined) + CCn1c(-c2cccnc2C(C)OC)c2c3cc(ccc31)N1CCOC(CC(NC(=O)C(C(C)C)N(C)C(=O)C3(F)CCN(C(=O)C#CC(C)(C)N(C)C)CC3)C(=O)N3CCCC(N3)C(=O)OCC(C)(C)C2)C1,IC50,second compound 0.000949 µM,31.6 nM
same,IC50,second compound 0.003 µM,< 31.6 nM
same,IC50,second compound 0.00949 µM,< 31.6 nM
same,IC50,second compound 0.03 µM,< 31.6 nM
same,IC50,second compound 0.0949 µM,< 31.6 nM
same,IC50,second compound 0.3 µM,< 31.6 nM
same,"viability, T/C",[1],37.5%
same,"viability, T/C",[2],40.4%
same,"viability, T/C",[3],39.2%
same,"viability, T/C",[4],61.9%
same,"viability, T/C",[5],2.95%
same,"viability, T/C",[6],2.43%
same,"viability, T/C",[7],14.9%
same,"viability, T/C",[8],14.6%
same,"viability, T/C",[9],13%
same,"viability, T/C",[10],20.1%
same,"viability, T/C",[11],3.32%
same,"viability, T/C",[12],3.8%
same,"viability, T/C",[13],15.2%
same,"viability, T/C",[14],12.3%
same,"viability, T/C",[15],15%
same,"viability, T/C",[16],20.3%
same,"viability, T/C",[17],2.22%
same,"viability, T/C",[18],3.83%
same,"viability, T/C",[19],12.6%
same,"viability, T/C",[20],12.1%
same,"viability, T/C",[21],15.5%
same,"viability, T/C",[22],13.3%
same,"viability, T/C",[23],1.81%
same,"viability, T/C",[24],3.54%
same,"viability, T/C",[25],12.4%
same,"viability, T/C",[26],13.6%
same,"viability, T/C",[27],15.6%
same,"viability, T/C",[28],13.9%
same,"viability, T/C",[29],1.94%
same,"viability, T/C",[30],3.52%
same,"viability, T/C",[31],11.8%
same,"viability, T/C",[32],14.9%
same,"viability, T/C",[33],12.4%
same,"viability, T/C",[34],9.04%
same,"viability, T/C",[35],2.28%
same,"viability, T/C",[36],3.42%

# Reference: PubChem BioAssay AID2060893 (Molecular Pharmacology Branch, DTP, NCI, 2025)
